Reference: patent publication US20100086483A1, “METHOD OF MULTIDETECTOR COMPUTED TOMAGRAPHY” (Gilead Palo Alto, Inc., priority 2008, published 2010)

System: conscious dogs
Assay: Effects of regadenoson on HR and CBF before and after metoprolol in conscious dogs
Type: in vivo, dog
Details: for Reg-induced tachycardia after metoprolol, % of control: metoprolol 1.5 mg/kg IV; for reduction of Reg-induced coronary vasodilation from control: metoprolol 1.5 mg/kg
Method: Five mongrel dogs were chronically instrumented for measurements of systemic hemodynamics and coronary blood flow (CBF). The effects of regadenoson (1, 2.5 and 5 μg/kg, IV) on HR and CBF were assessed before and after administration of the β1-adrenergic receptor blocker metoprolol (1.5 mg/kg). Values of peak CBF and the duration of the two-fold increase in CBF above baseline were used to assess Reg-induced coronary vasodilation.

COCCc1ccc(OCC(O)CNC(C)C)cc1 (stereo not drawn) [metoprolol]
Reg-induced tachycardia after metoprolol, % of control (Reg 1 μg/kg IV): 55±12 % of control
Reg-induced tachycardia after metoprolol, % of control (Reg 2.5 μg/kg IV): 54±7 % of control
Reg-induced tachycardia after metoprolol, % of control (Reg 5 μg/kg IV): 45±4 % of control
reduction of Reg-induced coronary vasodilation from control (Reg 1 μg/kg IV): 11±7%
reduction of Reg-induced coronary vasodilation from control (Reg 2.5 μg/kg IV): 10±4%
reduction of Reg-induced coronary vasodilation from control (Reg 5 μg/kg IV): 21±2%
